Results from US4389412A, “Substituted cyclopropanecarboxylic acid esters and pesticidal compositions containing the same as active ingredient” (priority 1979, dated 1983).
Where two headings read alike, the source gives them in different places.

Key:
[1] = tested on: tobacco cutworms (Prodenia litura Fabricius); experiment: Mortality test with tobacco cutworms by topical application method; type: in vivo
Method: Mortality test with tobacco cutworms (Prodenia litura Fabricius) by topical application method
Using a microsyringe, 0.5 μl of the above solution was dripped onto the thoracic adbominal region of each of 3-instar tobacco cutworm (Prodenia litura Fabricius) larvae. […] The test larvae were used in groups of 20 individuals each.

[2] = tested on: rice stem borers (Chilo suppressalis Walker); experiment: Mortality test with rice stem borers by topical application method; type: in vivo
Method: Mortality test with rice stem borers (Chilo suppressalis Walker) by topical application method
Using a microsyringe, 0.5 μl of the above solution was applied to the thoracic abdominal region of each final-instar larva of rice stem borer (Chilo suppressalis Walker). […] The test larvae were used in groups of 20 individuals each.

[3] = tested on: green rice leafhoppers (Nephotettix cincticeps Uhler); experiment: Mortality test with green rice leafhoppers by topical application method; conditions: for LD50: read-out: LD50 (median lethal dose), topical, green rice leafhoppers
Method: Mortality test with green rice leafhoppers (Nephotettix cincticeps Uhler) by topical application method
Then, the insects were kept at 25° C. with access to rice plant seedlings. The insects were used in groups of 15 individuals each.

[4] = tested on: houseflies (Musca domestica); experiment: Mortality test with houseflies by topical application method; conditions: 24 h
Method: Mortality test with houseflies (Musca domestica) by topical application method
Each of the compounds according to this invention and the control compounds (Table 2) was accurately weighted and a 0.1% solution of each sample in acetone was prepared. Female adult houseflies (Musca domestica) resistant to organophosphorus pesticides, were anesthetized with ether and 0.5 μl or 1.0 μl of the above solution was micropipetted onto the prothoracic dorsal region of each insect. The insects were then put in a high-walled dish together with feed and the dish was covered with a wire-mesh cover and kept at a temperature of 25° C. The test insects were used in groups of 30 individuals each. After 24 hours the insects were examined for deaths and the percent mortality was calculated.

[5] = 0.1 μg/Larva, 3-instar larvae, 24 hours, read-out: % Mortality
[6] = Nephotettix cincticeps, in Oryza sativa, 24 h

CC(C)C(C(=O)OCc1cccc(Oc2ccc(Cl)cc2)c1)c1ccc(Cl)cc1 (stereo not drawn) [Compound (J)]
mortality at 0.0001 mg [1, 5]: 0%
mortality at 1 µg/larva ([2]; 1.0 μg/Larva, final-instar larva, 24 hours, read-out: % Mortality): 15%
mortality at 10 µg/larva ([2]; 10 μg/Larva, final-instar larva, 24 hours, read-out: % Mortality): 90%

C#CC(OC(=O)C(c1ccc(Cl)cc1)C(C)C)c1cccc(Oc2ccc(Cl)cc2)c1 (stereo not drawn) [Compound (K)]
mortality at 0.0001 mg [1, 5]: 0%
mortality at 0.01 µg/female [3, 6]: 33%
mortality at 0.1 µg/female [3, 6]: 100%
mortality at 1 µg/female [3, 6]: 100%

CC1(C)C(C=C(Cl)Cl)C1C(=O)OCc1cccc(Oc2cccc(Cl)c2)c1 (stereo not drawn)
mortality at 0.5 µg/female [4]: 60%
mortality at 1 µg/female [4]: 93%

Cc1ccc(Oc2cccc(C(C#N)OC(=O)C3C(C=C(Cl)Cl)C3(C)C)c2)cc1C (stereo not drawn)
mortality at 0.5 µg/female [4]: 40%
mortality at 1 µg/female [4]: 80%

COP(=S)(OC)Oc1ccc([N+](=O)[O-])c(C)c1 [Fenitrothion, fenitrothion]
LD50 [3, 6]: 4050 mg/kg

CC1(C)C(C=C(Cl)Cl)C1C(=O)OC(C#N)c1cccc(Oc2cc(Cl)cc(Cl)c2)c1 (stereo not drawn)
mortality at 0.5 µg/female [4]: 0%
mortality at 1 µg/female [4]: 27%

CCOC(=O)CC(SP(=S)(OC)OC)C(=O)OCC (stereo not drawn) [Malathion, malathion]
LD50 [3, 6]: 565 mg/kg

CC1(C)C(C=C(Cl)Cl)C1C(=O)OCc1cccc(Oc2ccc(Cl)c(Cl)c2)c1 (stereo not drawn)
mortality at 0.5 µg/female [4]: 0%
mortality at 1 µg/female [4]: 20%

Cc1cccc(Oc2cccc(COC(=O)C3C(C=C(Cl)Cl)C3(C)C)c2)c1 (stereo not drawn)
mortality at 0.5 µg/female [4]: 50%
mortality at 1 µg/female [4]: 80%

Cc1ccc(Oc2cccc(COC(=O)C3C(C=C(Cl)Cl)C3(C)C)c2)cc1 (stereo not drawn)
mortality at 0.5 µg/female [4]: 80%
mortality at 1 µg/female [4]: 100%

CCOP(=S)(OCC)Oc1cc(C)nc(C(C)C)n1 [Diazinon, diazinon]
LD50 [3, 6]: 72.2 mg/kg

CC1(C)C(C=C(Cl)Cl)C1C(=O)OCc1cccc(Oc2ccccc2Cl)c1 (stereo not drawn)
mortality at 0.5 µg/female [4]: 30%
mortality at 1 µg/female [4]: 60%

CC1(C)C(C=C(Cl)Cl)C1C(=O)OCc1cccc(Oc2ccc(Cl)cc2)c1 (stereo not drawn) [Compound (1) cis-/trans- = 30:70]
LD50 (median lethal dose) ([3]; green rice leafhoppers, 1440 min): 0.85 µg/g

CC(C)=CC1C(C(=O)OCc2cccc(Oc3ccccc3)c2)C1(C)C (stereo not drawn) [Compound (A), Phenothrin]
mortality at 0.0001 mg ([1]; 24 h): 35%
mortality at 0.0001 mg ([1]; 24 h, read-out: Pesticidal effect, tobacco cutworm): 35%
mortality at 1 µg/larva ([2]; 24 h): 45%
mortality at 10 µg/larva ([2]; 24 h): 100%
mortality at 0.001 mg ([2]; 24 h, read-out: Pesticidal effect, rice stem borer): 45%
mortality at 0.01 µg/female [3, 6]: 80%
mortality at 0.1 µg/female [3, 6]: 100%
mortality at 1 µg/female [3, 6]: 100%
LD50 [3, 6]: 1.22 mg/kg
mortality at 10 ng ([3]; Nephotettix cincticeps, in Oryza sativa, 24 h, read-out: Pesticidal effect, green rice leafhopper): 80%
mortality at 0.5 µg/female [4]: 97%
mortality at 1 µg/female [4]: 100%
mortality at 0.001 mg ([4]; read-out: Pesticidal effect, housefly): 100%

CCC(C)c1ccccc1OC(=O)NC (stereo not drawn) [Bassa, o-sec-butylphenyl methylcarbamate]
LD50 [3, 6]: 93.8 mg/kg
